{"source": "patent US20170367588A1", "about": "“METHODS USING FACIAL TEMPERATURE TO EVALUATE POST-INGESTIVE IMPACT OF FOOD INGREDIENTS ON FAT OXIDATION” (NESTEC S.A., priority 2014, published 2017)", "key": {"[1]": {"experiment": "clinical trial, indirect calorimetry (energy expenditure and substrate oxidation)", "type": "in vivo, human", "settings": "for energy expenditure compared to placebo / fat oxidation compared to placebo: healthy men, time standardized AUC after ingestion; for energy expenditure compared to placebo: single ingestion in 200 ml tomato juice (1 mg capsaicin, 70 mg cinnamaldehyde, 200 μl CF); for fat oxidation compared to placebo: single ingestion in 200 ml tomato juice; for higher post-prandial fat oxidation compared to placebo, magnitude: over the period of the experiment (90 min), capsaicin 1 mg/200 ml, cinnamaldehyde 70 mg/200 ml", "method": "Participants. Participants were healthy men with 19<BMI<25 and 60 kg minimum body weight. The age was in the 20-50 range. Participants had to like spicy food but are moderate spicy food eaters. Screening of candidates was done through a questionnaire on spicy food habits. The clinical trial we approved by a competent ethics committee (Commission cantonale (VD) d'Etique pour recherché sur l'Etre Humain) and participants gave their written informed consent. This trial was conducted according to the principles and rules laid down in the Declaration of Helsinki and its subsequent amendments. The presented study was a double-blinded, balanced, randomized, cross-over, placebo-controlled clinical trial. For each measure, the subjects had tested after an over-night fast. They had been requested to use their car or public transportation to come to the investigation site in order to keep morning physical activity level as low as possible. Moreover, consumption of caffeine was not permitted after the lunch meal (12 p.m.) before each session, and participants had been asked to refrain their spice consumption for two days prior each session. Each sample was evaluated in two different sessions A and B, with the same design but different recordings (FIG. 1A). Each session started at 8:00 a.m. with a 30 minutes rest period and measurement preparation. During all the testing sessions, subjects were seated comfortably. Room temperature was in the 20 to 22° C. range. Subjects were instructed to remain quiet and still, but they were allowed to watch TV. Parameters were recorded 30 minutes before and 90 minutes after ingestion of each sample (FIG. 1A). Treatment. All active TRP agonists were in 200 ml liquid tomato juice ([…]) at room temperature and served with a slice of bread. Placebo was 200 ml Commercial tomato juice. Active ingredients per 200 ml were 1 mg of Capsaicin (Spectrum chemicals), 0.2 ml of Givaudan cooling flavor (QB-113-979-5) or 70 mg of Cinnamaldehyde (Sigma). All ingredients were in vitro validated in cell lines expressing hTRPV1, hTRPA1 or hTRPM8 according to the calcium imaging method described in Riera et al, 2009 (FIG. 2). Energy expenditure was measured using indirect calorimetry. Indirect calorimetry is a measure of respiratory gas exchange (oxygen consumption and carbon dioxide production), which estimates the amount of calories “burned.” This measurement was performed with the MAX-II device (Max II metabolic system, AEI technologies, Naperville, Ill., USA). The equation used by the MAX-II device to evaluate energy expenditure is the simplified Weir formula: REE=(3.941×VO2)+(1.106×VCO2), where: After answering questions from the compliance questionnaire, participants were comfortably installed in semi-recumbent position in a reclining bed, at an angle allowing the participant to ingest the test solution without having to adjust position between metabolic rate measurement periods and treatment ingestion. A canopy was installed over participant's head. Test started 08:30 a.m. following a stabilization period allowing FeCO2 values to reach physiologic range. Substrate oxidation (carbohydrates and fat utilization) and the respiratory quotient (RQ) were calculated using the VO2 and VCO2 values obtained from the MAX-II device during the same timeline than energy expenditure. VO2 and VCO2 values were corrected for protein oxidation. The following equations were used to calculate the amount of fat and carbohydrates oxidized (Dietary Reference Intakes for Energy, Carbohydrate, Fiber, Fat, Fatty Acids, Cholesterol, Protein, and Amino Acids (Macronutrients) (2002/2005) National Academies Press, pp. 633-645): All endpoints have been analyzed using a linear mixed model to take into account the correlation between repeated measures. […]"}, "[2]": {"settings": "literature (Ludy et al. 2011); cited from earlier work"}, "[3]": {"experiment": "clinical trial, facial thermography with infrared camera", "type": "in vivo, human", "parameters": "AUC Difference of the temperature vs placebo: unit not given beside the values", "settings": "for nose temperature after intake: Zone-2 (nose), over the 15 minutes post-ingestion, FIG. 4A; for cheek temperature after intake: Zone-12 (cheeks), immediately after intake, FIG. 4B", "method": "Participants. Participants were healthy men with 19<BMI<25 and 60 kg minimum body weight. The age was in the 20-50 range. Participants had to like spicy food but are moderate spicy food eaters. Screening of candidates was done through a questionnaire on spicy food habits. The clinical trial we approved by a competent ethics committee (Commission cantonale (VD) d'Etique pour recherché sur l'Etre Humain) and participants gave their written informed consent. This trial was conducted according to the principles and rules laid down in the Declaration of Helsinki and its subsequent amendments.\nThe presented study was a double-blinded, balanced, randomized, cross-over, placebo-controlled clinical trial. For each measure, the subjects had tested after an over-night fast. They had been requested to use their car or public transportation to come to the investigation site in order to keep morning physical activity level as low as possible. Moreover, consumption of caffeine was not permitted after the lunch meal (12 p.m.) before each session, and participants had been asked to refrain their spice consumption for two days prior each session. Each sample was evaluated in two different sessions A and B, with the same design but different recordings (FIG. 1A).\nEach session started at 8:00 a.m. with a 30 minutes rest period and measurement preparation. During all the testing sessions, subjects were seated comfortably. Room temperature was in the 20 to 22° C. range. Subjects were instructed to remain quiet and still, but they were allowed to watch TV. Parameters were recorded 30 minutes before and 90 minutes after ingestion of each sample (FIG. 1A).\nTreatment. All active TRP agonists were in 200 ml liquid tomato juice (Granini) at room temperature and served with a slice of bread. Placebo was 200 ml Commercial tomato juice. Active ingredients per 200 ml were 1 mg of Capsaicin (Spectrum chemicals), 0.2 ml of Givaudan cooling flavor (QB-113-979-5) or 70 mg of Cinnamaldehyde (Sigma). All ingredients were in vitro validated in cell lines expressing hTRPV1, hTRPA1 or hTRPM8 according to the calcium imaging method described in Riera et al, 2009 (FIG. 2).\nFacial thermography. In this study, infrared thermal imaging of the face has been used as an exploratory, non-invasive recording method of sympathetic nervous system activity. Using a FLIR A325 infrared camera (FLIR Systems, Inc) subjects were continuously recorded at a distance of ˜1 m. They were comfortably installed in a chair with the head maintained fixed on a chin-rest support, to facilitate the further image analysis. Room temperature was in the 20 to 22° C. range. The camera FLIR A325 is equipped with a 25° lens, resolution is 320×240 pixels, and sensitivity is 0.05° C. and accuracy±2° C. The recording was performed by acquiring 1 image/second. Thermographic imaging software, FLIR ResearchIR is used to acquire images.\nFacial thermography data were extracted using in-home algorithms developed within the Matlab framework (The Mathworks Inc., Natick, Mass., USA). First, a graphical user interface (GUI) was created to help defining manually a temperature threshold highlighting primarily subject's faces. An alignment of the face was then computed and twelve regions of interest (ROIs) drawn manually using the GUI (FIG. 1B). Face alignment/orientation correction was computed image by image by first creating a binary mask using the manually set temperature threshold. Holes in the binary mask were filled and the region with the greatest continuous area was selected. The selected region centroid was determined using the built-in Matlab region properties tool (regionprops). With the same tool, an ellipse was fitted within the region to obtain the angular orientation of the ellipse's major axis compared to the x-axis. […]"}, "mouse variant of TRPA1": {"molecular_target": "mouse variant of TRPA1 (Mus musculus, UniProt Q8BLA8)", "settings": "mouse variant of TRPA1, based on the literature; cited from earlier work"}, "hTRPA1": {"molecular_target": "T1, hTRPA1 (Homo sapiens, UniProt O75762)", "T1 construct": "expressed in transfected cells", "T1 sequence (O75762 whole entry)": "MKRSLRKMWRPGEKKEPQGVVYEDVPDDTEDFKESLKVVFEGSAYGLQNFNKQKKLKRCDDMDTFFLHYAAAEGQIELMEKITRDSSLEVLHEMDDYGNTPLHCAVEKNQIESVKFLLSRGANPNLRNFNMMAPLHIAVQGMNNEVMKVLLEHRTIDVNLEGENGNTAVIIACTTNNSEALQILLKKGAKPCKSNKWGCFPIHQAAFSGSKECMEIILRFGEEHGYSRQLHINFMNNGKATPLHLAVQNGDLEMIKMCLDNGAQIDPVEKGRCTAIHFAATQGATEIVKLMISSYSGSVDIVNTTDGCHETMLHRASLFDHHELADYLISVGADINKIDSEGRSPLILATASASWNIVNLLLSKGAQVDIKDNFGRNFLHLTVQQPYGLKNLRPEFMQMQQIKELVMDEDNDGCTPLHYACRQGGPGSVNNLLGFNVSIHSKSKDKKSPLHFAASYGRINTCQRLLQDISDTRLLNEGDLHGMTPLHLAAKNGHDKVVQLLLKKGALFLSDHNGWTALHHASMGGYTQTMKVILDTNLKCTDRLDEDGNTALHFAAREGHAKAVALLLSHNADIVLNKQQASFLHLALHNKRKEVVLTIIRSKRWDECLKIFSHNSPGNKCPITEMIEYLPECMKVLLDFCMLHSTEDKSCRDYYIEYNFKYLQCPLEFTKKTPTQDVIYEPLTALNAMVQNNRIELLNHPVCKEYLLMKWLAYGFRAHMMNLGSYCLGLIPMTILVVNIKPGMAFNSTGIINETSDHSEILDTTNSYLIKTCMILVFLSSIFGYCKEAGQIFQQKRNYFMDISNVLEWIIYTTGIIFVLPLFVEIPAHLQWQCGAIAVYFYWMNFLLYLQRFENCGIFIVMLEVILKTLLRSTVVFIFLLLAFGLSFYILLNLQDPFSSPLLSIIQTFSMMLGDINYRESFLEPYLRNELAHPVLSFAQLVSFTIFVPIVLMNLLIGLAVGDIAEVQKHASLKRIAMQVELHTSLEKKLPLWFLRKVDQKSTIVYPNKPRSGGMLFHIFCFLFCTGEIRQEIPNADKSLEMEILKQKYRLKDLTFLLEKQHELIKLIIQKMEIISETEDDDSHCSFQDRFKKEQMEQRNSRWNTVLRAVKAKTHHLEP", "experiment": "in vitro validation in cell lines expressing hTRPA1, calcium imaging", "type": "cell-based", "settings": "human TRPA1, in vitro, data not shown", "method": "Treatment. All active TRP agonists were in 200 ml liquid tomato juice ([…]) at room temperature and served with a slice of bread. Placebo was 200 ml Commercial tomato juice. Active ingredients per 200 ml were 1 mg of Capsaicin (Spectrum chemicals), 0.2 ml of Givaudan cooling flavor (QB-113-979-5) or 70 mg of Cinnamaldehyde (Sigma). All ingredients were in vitro validated in cell lines expressing hTRPV1, hTRPA1 or hTRPM8 according to the calcium imaging method described in Riera et al, 2009 (FIG. 2). The objective of this trial was to assess if the stimulation of TRPA1 and TRPM8 pathways could be as efficient at impacting the energy balance as is the simulation of TRPV1 by capsaicin or capsiate. Based on the literature, we selected the most representative TRPA1 agonist: cinnamaldehyde activating specifically the mouse variant of TRPA1 with an EC50 of 60 μM, its specificity on the human form of the receptor has been confirmed in vitro (data not shown). In order to identify an efficient and specific agonist of hTRPM8, different ingredients with cooling properties have been evaluated in vitro. A cooling flavor (CF) provided by Givaudan, activating specifically hTRPM8 with an EC50 of 0.07% (FIG. 2) has been selected. As a positive control, capsaicin was evaluated in parallel to cinnamaldehyde and CF in this trial."}, "[4]": {"settings": "Zone 1, all period post ingestion"}, "[5]": {"settings": "Zone 2 (nose), all period post ingestion"}, "[6]": {"settings": "Zone 3, all period post ingestion"}, "[7]": {"settings": "Zone 4, all period post ingestion"}, "[8]": {"settings": "Zone 5, all period post ingestion"}, "[9]": {"settings": "Zone 6, all period post ingestion"}, "[10]": {"settings": "Zone 7, all period post ingestion"}, "[11]": {"settings": "Zone 8, all period post ingestion"}, "[12]": {"settings": "Zone 9, all period post ingestion"}, "[13]": {"settings": "Zone 10 (chin), all period post ingestion"}, "[14]": {"settings": "Zone 11, all period post ingestion"}, "[15]": {"settings": "Zone 12 (cheeks), all period post ingestion"}}, "note": "Entries after “also recorded” stand apart in the source; their conditions may differ.", "data": [{"compound": "COc1cc(CNC(=O)CCCC/C=C/C(C)C)ccc1O", "note": "[capsaicin]", "values": [{"measurement": "energy expenditure compared to placebo", "setting": "[1]", "value": "no significant differences"}, {"measurement": "fat oxidation compared to placebo", "setting": "[1]", "value": "higher level of fat oxidation"}, {"measurement": "higher post-prandial fat oxidation compared to placebo, magnitude", "setting": "[1]", "value": "about 556.2 mg"}, {"measurement": "efficient doses for increasing energy expenditure and fat oxidation", "setting": "[2]", "value": "≥ 20", "unit": "mg"}, {"measurement": "AUC Difference of the temperature vs placebo", "setting": "[3]; [4]", "value": 18.584}, {"measurement": "AUC Difference of the temperature vs placebo", "setting": "[3]; [5]", "value": 54.439}, {"measurement": "AUC Difference of the temperature vs placebo", "setting": "[3]; [6]", "value": 16.959}, {"measurement": "AUC Difference of the temperature vs placebo", "setting": "[3]; [7]", "value": 14.893}, {"measurement": "AUC Difference of the temperature vs placebo", "setting": "[3]; [8]", "value": 8.126}, {"measurement": "AUC Difference of the temperature vs placebo", "setting": "[3]; [9]", "value": 13.186}, {"measurement": "AUC Difference of the temperature vs placebo", "setting": "[3]; [10]", "value": 9.255}, {"measurement": "AUC Difference of the temperature vs placebo", "setting": "[3]; [11]", "value": 12.469}, {"measurement": "AUC Difference of the temperature vs placebo", "setting": "[3]; [12]", "value": 26.056}, {"measurement": "AUC Difference of the temperature vs placebo", "setting": "[3]; [13]", "value": 25.26}, {"measurement": "AUC Difference of the temperature vs placebo", "setting": "[3]; [14]", "value": 3.299}, {"measurement": "AUC Difference of the temperature vs placebo", "setting": "[3]; [15]", "value": 22.575}, {"measurement": "nose temperature after intake", "setting": "[3]", "value": "significant increase; also recorded: increase nose temperature"}]}, {"compound": "O=CC=Cc1ccccc1", "note": "[cinnamaldehyde]", "values": [{"measurement": "energy expenditure compared to placebo", "setting": "[1]", "value": "increases energy expenditure"}, {"measurement": "fat oxidation compared to placebo", "setting": "[1]", "value": "higher level of fat oxidation"}, {"measurement": "higher post-prandial fat oxidation compared to placebo, magnitude", "setting": "[1]", "value": "~512.7", "unit": "mg"}, {"measurement": "EC50", "setting": "mouse variant of TRPA1", "value": 60, "unit": "µM"}, {"measurement": "specificity on the human form of the receptor", "setting": "hTRPA1", "value": "confirmed"}, {"measurement": "AUC Difference of the temperature vs placebo", "setting": "[3]; [4]", "value": 22.396}, {"measurement": "AUC Difference of the temperature vs placebo", "setting": "[3]; [5]", "value": 42.064}, {"measurement": "AUC Difference of the temperature vs placebo", "setting": "[3]; [6]", "value": 30.816}, {"measurement": "AUC Difference of the temperature vs placebo", "setting": "[3]; [7]", "value": 22.118}, {"measurement": "AUC Difference of the temperature vs placebo", "setting": "[3]; [8]", "value": 14.065}, {"measurement": "AUC Difference of the temperature vs placebo", "setting": "[3]; [9]", "value": 21.144}, {"measurement": "AUC Difference of the temperature vs placebo", "setting": "[3]; [10]", "value": 18.856}, {"measurement": "AUC Difference of the temperature vs placebo", "setting": "[3]; [11]", "value": 18.384}, {"measurement": "AUC Difference of the temperature vs placebo", "setting": "[3]; [12]", "value": 18.947}, {"measurement": "AUC Difference of the temperature vs placebo", "setting": "[3]; [13]", "value": 34.072}, {"measurement": "AUC Difference of the temperature vs placebo", "setting": "[3]; [14]", "value": 18.237}, {"measurement": "AUC Difference of the temperature vs placebo", "setting": "[3]; [15]", "value": 26.571}, {"measurement": "nose temperature after intake", "setting": "[3]", "value": "significant increase; also recorded: increase nose temperature"}, {"measurement": "chin temperature compared to placebo", "setting": "[3]; Zone-10 (chin), prolonged time after ingestion, adjusted p-value 0.0486", "value": "increases chin temperature"}, {"measurement": "cheek temperature after intake", "setting": "[3]", "value": "increases unilaterally cheek temperature"}, {"measurement": "cheek temperature after intake", "setting": "[3]; listed as Cinnamaldehyde", "value": "increased temperature"}]}]}
